Laboratory results from article PMC9458059, “Design, Synthesis and Biological Evaluation of New Carbohydrate-Based Coumarin Derivatives as Selective Carbonic Anhydrase IX Inhibitors via “Click” Reaction” (Molecules, 2022).
Where two headings read alike, the source gives them in different places.

Tests used:
CAII = conditions: reported coumarins, Figure 1; cited from earlier work
CAIX = conditions: reported coumarins, Figure 1; cited from earlier work
CAI = conditions: reported coumarins, Figure 1; cited from earlier work
hCA IX = biological target: T1, hCA IX (Homo sapiens, UniProt Q16790); assay: CA inhibition by the esterase assay, hCA IX; assay type: biochemical; conditions: for Inhibition of hCA IX (in words) / IC50: esterase assay; for IC50: human recombinant enzyme, 4-nitrophenylacetate as substrate; for Selectivity Ratio hCA I/hCA IX / Selectivity Ratio hCA II/hCA IX: ratio of IC50 values
T1 construct: purchased
Description: (§1) The esterase assay was used for testing the inhibitory activities of target compounds against carbonic anhydrases. […] Next, the stock solution of inhibitor was diluted to the specified concentration by using analysis buffer. […] In addition, the purchased CA was diluted with analysis buffer and added to 96-well plates. Next, different concentrations of inhibitors were also added to 96-well plates. To form the inhibitors and enzymes complex, E-I solutions were preincubated together for 4 h before the test at room temperature. Meanwhile, the nonenzymatic hydrolysis rates were tested by the blank control experiments. The absorbances were determined by using multifunctional enzyme marking instrument.

hCA I = biological target: T2, hCA I (Homo sapiens, UniProt P00915); assay: CA inhibition by the esterase assay, hCA I; assay type: biochemical; conditions: for IC50: human recombinant enzyme, 4-nitrophenylacetate as substrate
T2 construct: purchased
Description: as §1

hCA II = hCA II (Homo sapiens, UniProt P00918); assay: CA inhibition by the esterase assay, hCA II; assay type: biochemical; conditions: human recombinant enzyme, 4-nitrophenylacetate as substrate
Description: as §1

mice = assay: Acute toxicity assay in mice; conditions: mouse, in vivo, 14 days
Description: (§2) Finally, acute toxicity of representative compounds was conducted in mice to preliminarily evaluate the risk of target compounds to mammals. […].
(§3) […]. After the compound was administered, the latency of death was observed and recorded over a span of 14 days. The experimental protocols were evaluated and approved by the ethics committee of the Shenyang Pharmaceutical University.

[1] = Acute toxicity assay in mice; conditions: mouse, in vivo, oral, mice, expected from preliminary data
Description: as §2, §3

[2] = Metabolic stability in mouse liver microsomes; conditions: mouse, liver microsomes
HT-29 cells = assay: Cell viability MTT assay, HT-29; assay type: cell-based; conditions: Homo sapiens
Description: (§4) In the present study, the potential cytotoxicity of compounds 10a–10p was evaluated in vitro by MTT assay. […] So, half of each cell line were subjected to hypoxic conditions (0.5% O2, 5% CO2 and 94.5% N2) for inducing the expression of CA IX and the other half were incubated under normal conditions (normoxia). Subsequently, all synthesized derivatives were screened at a concentration of 100 μM to test their cytotoxicity in mentioned above cells.
(§5) The two human cancer cell lines were cultivated for 24 h at 37 °C in a 96-well plate. Subsequently, different concentrations of inhibitors were added to 96-well plate and then was incubated for 96 hours. After the MTT solution was added to per well, cancer cells were further incubated for 4 h at 37 °C. Finally, formazan crystals were dissolved by using DMSO. The cancer cells were from American Type Culture Collection.

MCF-10A cell line = assay: Cytotoxicity against normal cell line MCF-10A (MTT assay); assay type: cell-based; conditions: Homo sapiens
MDA-MB-231 cells = assay: Cell viability MTT assay, MDA-MB-231; assay type: cell-based; conditions: Homo sapiens
Description: as §4, §5

hERG channel = biological target: T3, hERG channel (Homo sapiens, UniProt Q12809); assay: Inhibition evaluation on hERG K+ channel (whole-cell recording, HEK 293); assay type: cell-based; conditions: HEK 293 cells stably transfected with hERG
T3 construct: expressed in transfected cells; host or cells: HEK 293
Description: HEK 293 cells were stably transfected with human Ether-a-gogo related gene (hERG) channel. The voltage-gated hERG potassium channel current was recorded at room temperature from randomly selected transfected cells using whole-cell recording technique with an EPC10 USB (HEKA) or Multiclamp 700 B amplifier (Molecular Devices) while electrical data was digitalized by Digidata1440 A with acquisition rate of 10 kHz and signals filtered at 2.5 KHz using Patchmaster or pClamp 10, respectively. Dofetilide was included as a positive control to ensure the accuracy and sensitivity of the test system. All experiments were performed in 3 times.

MDA-MB-231 cancer cells = assay: Extracellular pH measurement, MDA-MB-231; assay type: cell-based, human; conditions: MDA-MB-231, 0.1 and 0.5 mM, 48 h, normoxia and hypoxia
Description: (§6) One important feature of CA IX is regulating the pH of tumor cells. The expression of CA IX in solid tumors will make the extracellular pH become more acidic to promote tumor growth and metastasis. Therefore, the effect on extracellular pH of the representative compounds 10a and 10h was tested in hypoxia and normoxic conditions. […] Especially, the extracellular acidification of these two cancer cells could be slightly reversed by this compound under normoxic condition. In addition, the reversal of extracellular acidification is more significant under hypoxia condition. Furthermore, a dose-dependent effect was observed.
(§7) Figure 3 Extracellular pH measurement after 48 h of HT-29 and MDA-MB-231 cancer cells in normoxia and hypoxia upon treatment with compound 10a and 10h (0.1 and 0.5 mM).

HT-29 cancer cells = assay: Extracellular pH measurement, HT-29; assay type: cell-based, human; conditions: HT-29, 0.1 and 0.5 mM, 48 h, normoxia and hypoxia
Description: as §6, §7

[3] = hypoxia (0.5% O2, 5% CO2 and 94.5% N2), read-out: Cell Viability (%) HT-29 Hypoxia
[4] = normoxia, read-out: Cell Viability (%) HT-29 Normoxia
[5] = hypoxia (0.5% O2, 5% CO2 and 94.5% N2), read-out: Cell Viability (%) MDA-MB-231 Hypoxia
[6] = normoxia, read-out: Cell Viability (%) MDA-MB-231 Normoxia

T2 sequence (P00915 whole entry): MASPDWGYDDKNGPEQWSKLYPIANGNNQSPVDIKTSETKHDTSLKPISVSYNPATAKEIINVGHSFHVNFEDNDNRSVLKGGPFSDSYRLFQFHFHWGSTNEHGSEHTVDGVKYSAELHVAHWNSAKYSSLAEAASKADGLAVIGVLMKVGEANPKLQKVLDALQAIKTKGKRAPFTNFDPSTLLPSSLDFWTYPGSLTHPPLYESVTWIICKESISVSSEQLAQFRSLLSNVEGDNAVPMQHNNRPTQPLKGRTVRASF
T3 sequence (Q12809 whole entry): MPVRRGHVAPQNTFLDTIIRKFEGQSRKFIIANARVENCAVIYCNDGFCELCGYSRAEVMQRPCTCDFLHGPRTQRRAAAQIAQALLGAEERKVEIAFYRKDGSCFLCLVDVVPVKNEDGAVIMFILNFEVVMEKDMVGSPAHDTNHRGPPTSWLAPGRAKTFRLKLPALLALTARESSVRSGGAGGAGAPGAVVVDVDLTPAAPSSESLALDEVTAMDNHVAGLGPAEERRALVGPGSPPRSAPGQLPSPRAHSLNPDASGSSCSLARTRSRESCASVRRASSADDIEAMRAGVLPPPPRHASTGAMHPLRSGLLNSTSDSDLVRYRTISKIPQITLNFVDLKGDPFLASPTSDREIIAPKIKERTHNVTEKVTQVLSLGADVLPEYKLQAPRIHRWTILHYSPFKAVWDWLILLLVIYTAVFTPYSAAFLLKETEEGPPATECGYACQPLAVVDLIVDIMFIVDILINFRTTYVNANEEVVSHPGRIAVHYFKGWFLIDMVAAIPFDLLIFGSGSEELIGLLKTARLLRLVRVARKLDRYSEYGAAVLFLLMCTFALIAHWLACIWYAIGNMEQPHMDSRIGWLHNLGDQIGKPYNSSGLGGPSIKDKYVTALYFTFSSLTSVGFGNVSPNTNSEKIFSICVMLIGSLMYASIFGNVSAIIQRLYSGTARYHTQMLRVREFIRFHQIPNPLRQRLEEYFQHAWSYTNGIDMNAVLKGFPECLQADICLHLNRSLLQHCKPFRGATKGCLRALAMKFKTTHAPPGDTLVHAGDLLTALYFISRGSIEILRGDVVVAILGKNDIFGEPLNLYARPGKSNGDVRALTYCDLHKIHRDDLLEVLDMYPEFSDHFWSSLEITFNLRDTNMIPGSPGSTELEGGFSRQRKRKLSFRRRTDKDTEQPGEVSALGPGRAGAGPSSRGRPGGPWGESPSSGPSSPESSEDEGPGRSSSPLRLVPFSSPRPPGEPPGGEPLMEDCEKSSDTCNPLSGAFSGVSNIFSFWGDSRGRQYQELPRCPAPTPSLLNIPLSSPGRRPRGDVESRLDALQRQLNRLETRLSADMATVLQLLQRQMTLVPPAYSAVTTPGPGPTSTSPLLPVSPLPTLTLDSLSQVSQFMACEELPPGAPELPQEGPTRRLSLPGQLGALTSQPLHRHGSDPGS

SMILES	Ki (CAII) [µM]	Ki (CAIX) [µM]	Ki (CAI) [µM]	IC50 (hCA IX) [µM]	IC50 (hCA I) [µM]	IC50 (hCA II) [µM]	CLint scaled at 1 μM [2] [mL/min/kg]	half-life at 1 μM [2] [h]	viability at 100 µM (HT-29 cells; [3]) [%]	viability at 100 µM (HT-29 cells; [4]) [%]	Selectivity Ratio hCA I/hCA IX (hCA IX)	Selectivity Ratio hCA II/hCA IX (hCA IX)	viability at 100 µM (MDA-MB-231 cells; [5]) [%]	viability at 100 µM (MDA-MB-231 cells; [6]) [%]	melting point [°C]	further results
S=c1ccc2ccccc2o1 [2-Thiocoumarin 4, 2-thioxocoumarin]	> 100	6.7	> 100	–	–	–	–	–	–	–	–	–	–	–	–	–
Cc1cc(=O)oc2cc(O)ccc12 [4-Methylumbelliferone, 4-methyl-7-hydroxy coumarin, reference compound]	> 100	0.56	> 100	0.6	> 100	> 100	–	–	–	–	–	–	–	–	–	Inhibition of hCA IX (in words) (hCA IX): weakly inhibited; Inhibition of hCA I (in words) (hCA I): not at all inhibited
O=c1ccc2ccccc2o1 [Compound 2]	–	> 50	–	–	–	–	–	–	–	–	–	–	–	–	–	–
Cc1cc(=O)oc2cc(O[C@@H]3O[C@H](CO)[C@@H](O)[C@H](O)[C@H]3O)ccc12 [Compound 8]	> 100	0.37	1	–	–	–	–	–	–	–	–	–	–	–	–	–
Cc1cc(=O)oc2cc(O[C@@H]3O[C@H](CO)[C@@H](O)[C@H](O)[C@@H]3O)ccc12 [Compound 9]	> 100	0.0092	> 100	–	–	–	–	–	–	–	–	–	–	–	–	–
O=c1ccc2ccc(OCc3cn([C@@H]4O[C@H](CO)[C@@H](O)[C@H](O)[C@@H]4O)nn3)cc2o1 [Compound 10c, 7-[(1-β-. D-mannopyranosyl-1H-1,2,3-triazol-4-yl)methoxy]-2H-chromen-2-one]	–	–	–	0.015	17.5	24	4.07	22.4	40.2	42.6	1167	1600	38.3	55.2	–	Survival Quantity/Total Quantity (mice; 500 mg/kg): 5/5; Survival Quantity/Total Quantity (mice; 1000 mg/kg): 5/5; Survival Quantity/Total Quantity (mice; 1500 mg/kg): 5/5; LD50 at 14 days [1]: > 1500 mg/kg; IC50 (MCF-10A cell line): > 100 µM; IC50 (hERG channel): > 50 µM
O=c1ccc2ccc(OCc3cn([C@@H]4O[C@H](CO)[C@@H](O)[C@H]4O)nn3)cc2o1 [Compound 10h, 7-[(1-β-. D-ribofuranosyl-1H-1,2,3-triazol-4-yl)methoxy]-2H-chromen-2-one]	–	–	–	0.132	23.3	19	4.21	21.7	43.5	54	177	144	37.2	63.7	131.2 to 133.6	Effect on extracellular acidification (extracellular pH) (MDA-MB-231 cancer cells): weaker reversal effect of extracellular acidification; Effect on extracellular acidification (extracellular pH) (HT-29 cancer cells): weaker reversal effect of extracellular acidification
Cc1cc(=O)oc2cc(OCc3cn([C@@H]4OC[C@@H](O)[C@H](O)[C@H]4O)nn3)ccc12 [Compound 10m, 7-[(1-β-. D-xylopyranosyl-1H-1,2,3-triazol-4-yl)methoxy]-4-methyl-2H-chromen-2-one]	–	–	–	0.067	43.9	22.6	3.38	27.1	35.5	40.5	655	337	39.8	53.2	122.4 to 123.9	–
Cc1cc(=O)oc2cc(OCc3cn([C@@H]4OC[C@H](O)[C@H](O)[C@H]4O)nn3)ccc12 [Compound 10n, 7-[(1-β-. L-arabinopyranosyl-1H-1,2,3-triazol-4-yl)methoxy]-4-methyl-2H-chromen-2-one]	–	–	–	0.045	35.7	12.2	3.56	25.7	38.2	41.5	793	271	38.5	65.7	129.3 to 132.5	–
Cc1cc(=O)oc2cc(OCc3cn([C@H]4O[C@@H](C)[C@H](O)[C@@H](O)[C@H]4O)nn3)ccc12 [Compound 10o, 7-[(1-β-. L-rhamnosyl-1H-1,2,3-triazol-4-yl)methoxy]-4-methyl-2H-chromen-2-one]	–	–	–	0.096	57.5	32.1	3.13	29.2	33.3	45.7	599	334	38.7	60.3	125.5 to 127.7	–
Cc1cc(=O)oc2cc(OCc3cn([C@@H]4O[C@H](CO)[C@@H](O)[C@H]4O)nn3)ccc12 [Compound 10p, 7-[(1-β-. D-ribofuranosyl-1H-1,2,3-triazol-4-yl)methoxy]-4-methyl-2H-chromen-2-one]	–	–	–	0.098	63.4	22.4	2.98	30.7	36.7	63.1	647	229	35.2	73.1	123.2 to 125.6	–
S=c1ccc2ccccc2s1 [Dithiocoumarin 5, dithiocoumarin]	> 100	–	> 100	–	–	–	–	–	–	–	–	–	–	–	–	–
O=c1ccc2ccccc2s1 [Thiocoumarin 3, thiocoumarin]	–	–	> 100	–	–	–	–	–	–	–	–	–	–	–	–	–
O=c1ccc2ccc(O)cc2o1 [Umbelliferone, 7-hydroxy coumarin]	> 100	0.478	> 58.4	–	–	–	–	–	–	–	–	–	–	–	–	Inhibition of hCA IX (in words) (hCA IX): weakly inhibited; Inhibition of hCA I (in words) (hCA I): not at all inhibited
